# In patent US6737383B1, “Herbicidal oxadiazolidines” (priority 1999, dated 2004):
# Legend:
# bedstraw = assay: Test B pre/postemergence bedstraw; type: in vivo, Galium aparine; details: Preemergence
# How it was run: (§1)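 Test chemicals in a non-phytotoxic solvent mixture with surfactant were sprayed preemergence onto planted seeds and postemergence onto plants 2 to 18 cm tall (1- to 4-leaf stage). After twelve to sixteen days in a greenhouse, injury was visually rated against untreated controls from 0 (no effect) to 10 (complete control).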
# blackgrass = assay: Test B pre/postemergence blackgrass; type: in vivo, Alopecurus myosuroides; details: Preemergence
# How it was run: as §1
# surinam grass = assay: Test B pre/postemergence surinam grass; type: in vivo, Brachiaria decumbens; details: Preemergence
# How it was run: as §1
# cocklebur = assay: Test B pre/postemergence cocklebur; type: in vivo, Xanthium strumarium; details: Preemergence
# How it was run: as §1
# corn = assay: Test B pre/postemergence corn; type: in vivo, Zea mays; details: Preemergence
# How it was run: as §1
# crabgrass = assay: Test B pre/postemergence crabgrass; type: in vivo, Digitaria sanguinalis; details: Preemergence
# How it was run: as §1
# giant foxtail = assay: Test B pre/postemergence giant foxtail; type: in vivo, Setaria faberii; details: Preemergence
# How it was run: as §1
# morningglory = assay: Test B pre/postemergence morningglory; type: in vivo, Ipomoea hederacea; details: Preemergence
# How it was run: as §1
# pigweed = assay: Test B pre/postemergence pigweed; type: in vivo, Amaranthus retroflexus; details: Preemergence
# How it was run: as §1
# rape = assay: Test B pre/postemergence rape; type: in vivo, Brassica napus; details: Preemergence
# How it was run: as §1
# soybean = assay: Test B pre/postemergence soybean; type: in vivo, Glycine max; details: Preemergence
# How it was run: as §1
# sugar beet = assay: Test B pre/postemergence sugar beet; type: in vivo, Beta vulgaris; details: Preemergence
# How it was run: as §1
# velvetleaf = assay: Test B pre/postemergence velvetleaf; type: in vivo, Abutilon theophrasti; details: Preemergence
# How it was run: as §1
# wheat = assay: Test B pre/postemergence wheat; type: in vivo, Triticum aestivum; details: Preemergence
# How it was run: as §1
# wild oat = assay: Test B pre/postemergence wild oat; type: in vivo, Avena fatua; details: Preemergence
# How it was run: as §1
# purple nutsedge = assay: Test B pre/postemergence purple nutsedge; type: in vivo, Cyperus rotundus; details: Preemergence
# How it was run: as §1
# rice = assay: Test B flood test rice; type: in vivo, Oryza sativa
# How it was run: (§2)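 Flood test on plants grown to the 2-leaf stage; treated plants kept in greenhouse twelve to sixteen days, then visually rated against controls on a 0 (no effect) to 10 (complete control) scale.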
# smallflower flatsedge = assay: Test B flood test smallflower flatsedge; type: in vivo, Cyperus difformis
# How it was run: as §2
# duck salad = assay: Test B flood test duck salad; type: in vivo, Heteranthera limosa
# How it was run: as §2
# bamyardgrass = assay: Test B flood test barnyardgrass; type: in vivo, Echinochloa crus-galli
# How it was run: as §2
# [1] = Rate 125 g/ha, scale of 0 to 10 where 0 is no effect and 10 is complete control
# [2] = Rate 250 g/ha, scale 0 (no effect) to 10 (complete control)
# [3] = Rate 500 g/ha, scale 0 to 10 (0 no effect, 10 complete control)
# [4] = Rate 62 g/ha, scale of 0 to 10 where 0 is no effect and 10 is complete control
# [5] = Pre-emergence, Rate 62 g/ha, scale 0 to 10, 0 is no effect, 10 is complete control
# [6] = Rate 125 g/ha, Pre-emergence section (flood test species), scale 0 to 10, 0 no effect, 10 complete control
# [7] = Rate 250 g/ha, Pre-emergence (flood test species), scale 0 to 10, 0 is no effect, 10 is complete control
# [8] = Rate 500 g/ha, Pre-emergence section of Table B, 0 to 10 scale (0 no effect, 10 complete control)
smiles,measurement,setting,value
CC(C)N(C(=O)n1oc(=O)n(C(C)C2CC2)c1=O)c1ccc(F)cc1F (centres unmarked) [Compound 720],"Plant response rating, Bedstraw",bedstraw; [1],10
same,Bedstraw plant response rating,bedstraw; [2],10
same,Bedstraw plant response rating,bedstraw; [3],10
same,Blackgrass plant response rating,blackgrass; [4],9
same,"Plant response rating, Blackgrass",blackgrass; [1],9
same,Blackgrass plant response rating,blackgrass; [2],10
same,Blackgrass plant response rating,blackgrass; [3],10
same,B. signalgrass plant response rating,surinam grass; [4],8
same,"Plant response rating, B. signalgrass",surinam grass; [1],9
same,B. signalgrass plant response rating,surinam grass; [2],10
same,B. signalgrass plant response rating,surinam grass; [3],10
same,Cocklebur plant response rating,cocklebur; [4],0
same,"Plant response rating, Cocklebur",cocklebur; [1],0
same,Cocklebur plant response rating,cocklebur; [2],0
same,Corn plant response rating,corn; [4],0
same,"Plant response rating, Corn",corn; [1],2
same,Corn plant response rating,corn; [2],4
same,Crabgrass plant response rating,crabgrass; [4],9
same,"Plant response rating, Crabgrass",crabgrass; [1],9
same,Crabgrass plant response rating,crabgrass; [2],10
same,Crabgrass plant response rating,crabgrass; [3],10
same,Giant foxtail plant response rating,giant foxtail; [4],9
same,"Plant response rating, Giant foxtail",giant foxtail; [1],10
same,Giant foxtail plant response rating,giant foxtail; [2],10
same,Giant foxtail plant response rating,giant foxtail; [3],10
same,Morningglory plant response rating,morningglory; [4],0
same,"Plant response rating, Morningglory",morningglory; [1],0
same,Morningglory plant response rating,morningglory; [3],2
same,Redroot pigweed plant response rating,pigweed; [4],8
same,"Plant response rating, Redroot pigweed",pigweed; [1],9
same,Redroot pigweed plant response rating,pigweed; [2],10
same,Redroot pigweed plant response rating,pigweed; [3],10
same,Rape plant response rating,rape; [4],6
same,"Plant response rating, Rape",rape; [1],7
same,Rape plant response rating,rape; [2],9
same,Rape plant response rating,rape; [3],9
same,Soybean plant response rating,soybean; [4],0
same,"Plant response rating, Soybean",soybean; [1],0
same,Soybean plant response rating,soybean; [2],0
same,Soybean plant response rating,soybean; [3],0
same,Sugarbeets plant response rating,sugar beet; [4],4
same,"Plant response rating, Sugarbeets",sugar beet; [1],6
same,Sugarbeets plant response rating,sugar beet; [2],8
same,Sugarbeets plant response rating,sugar beet; [3],8
same,Velvetleaf plant response rating,velvetleaf; [4],1
same,"Plant response rating, Velvetleaf",velvetleaf; [1],2
same,Velvetleaf plant response rating,velvetleaf; [2],3
same,Velvetleaf plant response rating,velvetleaf; [3],3
same,Wheat plant response rating,wheat; [4],0
same,"Plant response rating, Wheat",wheat; [1],0
same,Wheat plant response rating,wheat; [2],5
same,Wheat plant response rating,wheat; [3],5
same,Wild oats plant response rating,wild oat; [4],7
same,"Plant response rating, Wild oats",wild oat; [1],8
same,Wild oats plant response rating,wild oat; [2],9
same,Wild oats plant response rating,wild oat; [3],9
same,"Plant response rating, Nutsedge",purple nutsedge; [1],0
same,Nutsedge plant response rating,purple nutsedge; [3],0
same,Rice plant response rating,rice; [5],0
same,Rice plant response rating,rice; [6],0
same,Rice plant response rating,rice; [7],0
same,Rice plant response rating,rice; [8],0
same,S. Flatsedge plant response rating,smallflower flatsedge; [5],0
same,S. Flatsedge plant response rating,smallflower flatsedge; [6],0
same,S. Flatsedge plant response rating,smallflower flatsedge; [7],0
same,S. Flatsedge plant response rating,smallflower flatsedge; [8],0
same,Ducksalad plant response rating,duck salad; [5],0
same,Ducksalad plant response rating,duck salad; [6],0
same,Ducksalad plant response rating,duck salad; [7],0
same,Ducksalad plant response rating,duck salad; [8],0
same,Barnyardgrass plant response rating,bamyardgrass; [5],0
same,Barnyardgrass plant response rating,bamyardgrass; [6],0
same,Barnyardgrass plant response rating,bamyardgrass; [7],0
same,Barnyardgrass plant response rating,bamyardgrass; [8],0
